Assay results taken from patent EP2987482A1 (Santa Farma Ilaç Sanayi A.S., priority 2014, dated 2016).

Legend:
[1] = cited from earlier work
[2] = pH of media after dissolving the composition in water; type: physicochemical; conditions: magnetic stirrer for 3 minutes

Q: For “4-[3,5-bis(2-hydroxyphenyl)-[1,2,4]triazol-1-yl]benzoic acid [deferasirox]”, which permeability [1] is on record?
A: good permeability

Q: And the pH of media ([2]; composition with 500 mg deferasirox and 40 mg sodium carbonate)?
A: 8.13

Q: And the pH of media ([2]; composition with 500 mg deferasirox and 60 mg sodium carbonate)?
A: 8.33

Q: What about the pH of media ([2]; composition with 500 mg deferasirox and 80 mg sodium carbonate) of the same substance?
A: 8.44

Q: What about the pH of media ([2]; composition with 500 mg deferasirox and 100 mg sodium carbonate) of the same substance?
A: 8.65

Q: And the pH of media ([2]; composition with 500 mg deferasirox and 120 mg sodium carbonate)?
A: 8.77

Q: And the pH of media ([2]; composition with 500 mg deferasirox and 140 mg sodium carbonate)?
A: 8.84

Q: And the pH of media ([2]; composition with 500 mg deferasirox and 160 mg sodium carbonate)?
A: 8.91
